Experimental data taken from patent publication US10065990B2, “Cyclic peptide compound, and preparation method, pharmaceutical composition and use thereof” (HANGZHOU GUANYU BIO-MEDICAL CO., LTD, priority 2013, dated 2018).
Where two headings read alike, the source gives them in different places.

Experiments:
HDAC7 = target: T1, HDAC7 (Homo sapiens, UniProt Q8WUI4); assay: HDAC biochemical activity measurement (fluorescent substrate deacetylation);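 also: fluorogenic deacetylation assay using acetyl-lysine substrate at 20 µM, enzyme and compound incubated 30 min at 37 °C, then developer added, fluorescence read at 360/460 nm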; settings: HDAC7; 37° C. 30 minutes
T1 sequence (Q8WUI4 1-952): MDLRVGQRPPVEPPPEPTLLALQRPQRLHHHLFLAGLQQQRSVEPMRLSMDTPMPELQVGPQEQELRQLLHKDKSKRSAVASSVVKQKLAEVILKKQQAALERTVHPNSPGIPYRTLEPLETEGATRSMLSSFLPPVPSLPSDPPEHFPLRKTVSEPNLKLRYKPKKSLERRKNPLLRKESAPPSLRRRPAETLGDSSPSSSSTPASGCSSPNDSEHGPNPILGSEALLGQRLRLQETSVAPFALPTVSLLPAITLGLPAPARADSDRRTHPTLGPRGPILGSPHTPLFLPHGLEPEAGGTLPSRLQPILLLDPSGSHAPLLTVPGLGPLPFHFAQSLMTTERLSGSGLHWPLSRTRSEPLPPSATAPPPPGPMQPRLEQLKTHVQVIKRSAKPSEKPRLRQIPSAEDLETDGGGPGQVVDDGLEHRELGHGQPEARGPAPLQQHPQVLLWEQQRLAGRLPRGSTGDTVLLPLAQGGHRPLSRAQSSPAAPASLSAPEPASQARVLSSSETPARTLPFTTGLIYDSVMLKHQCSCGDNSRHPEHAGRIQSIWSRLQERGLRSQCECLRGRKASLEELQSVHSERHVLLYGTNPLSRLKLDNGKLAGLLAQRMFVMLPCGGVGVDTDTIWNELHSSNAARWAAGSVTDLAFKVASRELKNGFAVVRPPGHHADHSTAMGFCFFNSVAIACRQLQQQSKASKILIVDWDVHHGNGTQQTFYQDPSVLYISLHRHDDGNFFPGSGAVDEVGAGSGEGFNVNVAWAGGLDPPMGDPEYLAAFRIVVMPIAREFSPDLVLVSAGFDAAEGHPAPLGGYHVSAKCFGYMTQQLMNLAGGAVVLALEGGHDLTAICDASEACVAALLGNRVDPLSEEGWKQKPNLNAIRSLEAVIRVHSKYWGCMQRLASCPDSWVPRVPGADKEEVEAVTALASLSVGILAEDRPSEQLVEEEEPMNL

[1] = tested on: A549 (human lung cancer cells); assay: MTT cancer cell growth inhibition; assay type: cell-based; settings: Homo sapiens, A549, 72 h, MTT, 72 hours incubation, read-out: GI50 A54
Summary of the method: (§1)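 Cells seeded at 1500/well in DMEM or RPMI 1640 with 10% FBS, incubated overnight, then exposed to compound at 10^−5 to 10^−10 M final in triplicate for 72 h at 37° C, 5% CO2. MTT added for 4 h, formazan dissolved in DMSO, absorbance read at 570 nm; GI50 derived from viability.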

[2] = tested on: BGC-823 (human gastric cancer cells); assay: MTT cancer cell growth inhibition; assay type: cell-based; settings: Homo sapiens, BGC-823, 72 h, MTT, 72 hours incubation, read-out: GI50 BG
Summary of the method: as §1

[3] = tested on: Bel-7402 (human hepatoma cells); assay: MTT cancer cell growth inhibition; assay type: cell-based; settings: Homo sapiens, Bel-7402, 72 h, MTT, 72 hours incubation, Bel-7402 cells; read-out: GI50 Bel-7402
Summary of the method: as §1

[4] = tested on: DU145 (human prostate cancer cells); assay: MTT cancer cell growth inhibition; assay type: cell-based; settings: Homo sapiens, DU-145, 72 h, MTT, 72 hours incubation, read-out: GI50 Du1
Summary of the method: as §1

[5] = tested on: H1975 (non-small cell lung adenocarcinoma); assay: MTT cancer cell growth inhibition; assay type: cell-based; settings: Homo sapiens, NCI-H1975, 72 h, MTT, 72 hours incubation, H1975 cells; read-out: GI50 H1975
Summary of the method: as §1

[6] = tested on: HCC827 (human non-small cell lung cancer cells); assay: MTT cancer cell growth inhibition; assay type: cell-based; settings: Homo sapiens, HCC827, 72 h, MTT, 72 hours incubation, HCC827 cells; read-out: GI50 HCC827
Summary of the method: as §1

[7] = tested on: HT1080 (human fibrosarcoma cells); assay: MTT cancer cell growth inhibition; assay type: cell-based; settings: Homo sapiens, HT-1080, 72 h, MTT, 72 hours incubation, read-out: GI50 HT1
Summary of the method: as §1

[8] = tested on: Hela (human cervical cancer cells); assay: MTT cancer cell growth inhibition; assay type: cell-based; settings: Homo sapiens, HeLa, 72 h, MTT, 72 hours incubation, read-out: GI50 Hela
Summary of the method: as §1

[9] = tested on: Huh-7 (human hepatoma cells); assay: MTT cancer cell growth inhibition; assay type: cell-based; settings: Homo sapiens, Huh-7, 72 h, MTT, 72 hours incubation, Huh-7 cells; read-out: GI50 Huh-7
Summary of the method: as §1

[10] = tested on: K562 (human leukemia cells); assay: MTT cancer cell growth inhibition; assay type: cell-based; settings: Homo sapiens, K562, 72 h, MTT, 72 hours incubation, K562 cells; read-out: GI50 K562
Summary of the method: as §1

[11] = tested on: KBM-5 (human chronic myelogenous leukemia); assay: MTT cancer cell growth inhibition; assay type: cell-based; settings: Homo sapiens, KBM5, 72 h, MTT, 72 hours incubation, KBM-5 cells; read-out: GI50 KBM-5
Summary of the method: as §1

[12] = tested on: KBM5-T315I (human chronic myelogenous leukemia); assay: MTT cancer cell growth inhibition; assay type: cell-based; settings: Homo sapiens, 72 h, MTT, 72 hours incubation, KBM5-T315I cells; read-out: GI50 KBM5-T315I
Summary of the method: as §1

[13] = tested on: MCF-7 (human breast cancer cells); assay: MTT cancer cell growth inhibition; assay type: cell-based; settings: Homo sapiens, MCF7, 72 h, 72 hours incubation, read-out: GI50 MCF
Summary of the method: as §1

[14] = tested on: MDA-MB-231 (breast cancer cells); assay: MTT cancer cell growth inhibition; assay type: cell-based; settings: Homo sapiens, MDA-MB-231, 72 h, read-out: GI50 MDA-MB-231, MTT, 72 hours incubation, MDA-MB-231 cells
Summary of the method: as §1

[15] = tested on: MOLT-4 (human acute lymphoblastic leukemia cells); assay: MTT cancer cell growth inhibition; assay type: cell-based; settings: Homo sapiens, MOLT-4, 72 h, MTT, 72 hours incubation, read-out: GI50 Mol
Summary of the method: as §1

[16] = tested on: N-87 (human gastric cancer cells); assay: MTT cancer cell growth inhibition; assay type: cell-based; settings: Homo sapiens, 72 h, MTT, 72 hours incubation, N-87 cells; read-out: GI50 N-87
Summary of the method: as §1

[17] = tested on: PANC-1 (Pac-1, human pancreatic cancer cells); assay: MTT cancer cell growth inhibition; assay type: cell-based; settings: Homo sapiens, PANC-1, 72 h, MTT, 72 hours incubation, read-out: GI50 PAN
Summary of the method: as §1

[18] = tested on: SGC-7901 (human gastric cancer cells); assay: MTT cancer cell growth inhibition; assay type: cell-based; settings: Homo sapiens, SGC-7901, 72 h, MTT, 72 hours incubation, SGC-7901 cells; read-out: GI50 SGC-7901
Summary of the method: as §1

[19] = tested on: U937 (human leukemia cells); assay: MTT cancer cell growth inhibition; assay type: cell-based; settings: Homo sapiens, U-937, 72 h, MTT, 72 hours incubation, read-out: GI50 U93
Summary of the method: as §1

[20] = tested on: lncap (prostate cancer cells); assay: MTT cancer cell growth inhibition; assay type: cell-based; settings: Homo sapiens, LNCaP, 72 h, MTT, 72 hours incubation, read-out: GI50 lnca
Summary of the method: as §1

Compound	IC50 HDAC7 (HDAC7)	GI50 [3]	GI50 [5]	GI50 [6]	GI50 [9]	GI50 [10]	GI50 [11]	GI50 [12]	GI50 [14]	GI50 [16]	GI50 [18]	GI50 [1]	GI50 [2]	GI50 [4]	GI50 [7]	GI50 [8]	GI50 [13]	GI50 [15]	GI50 [17]	GI50 [19]	also measured
CC(C)=C1NC(=O)c2ccc(F)c(n2)CNC(=O)C[C@@H](/C=C/CCS)OC(=O)[C@H](C(C)C)NC1=O [Compound 138]	no activity	76 nM	43 nM	22 nM	36 nM	21 nM	42 nM	45 nM	52 nM	16 nM	72 nM	40 nM	20 nM	20 nM	20 nM	60 nM	20 nM	50 nM	30 nM	20 nM	GI50 [20]: 50 nM
C/C=C1\NC(=O)c2ccc(F)c(n2)CNC(=O)C[C@@H](/C=C/CCSC(C)=O)OC(=O)[C@H](C)NC1=O [Example 65]	no activity	62 nM	29 nM	62 nM	43 nM	29 nM	92 nM	63 nM	43 nM	52 nM	77 nM	70 nM	50 nM	20 nM	60 nM	90 nM	60 nM	40 nM	60 nM	20 nM	GI50 [20]: 40 nM
C/C=C1\NC(=O)c2nc(ccc2F)CNC(=O)C[C@@H](/C=C/CCS)OC(=O)[C@H](C(C)C)NC1=O [Compound 106]	no activity	66 nM	68 nM	43 nM	31 nM	27 nM	56 nM	76 nM	19 nM	12 nM	35 nM	60 nM	20 nM	30 nM	30 nM	50 nM	30 nM	30 nM	30 nM	20 nM	GI50 [20]: 30 nM

These reach a lower GI50 [3]. Values come first.

IC50 HDAC7 (HDAC7)	GI50 [3]	GI50 [5]	GI50 [6]	GI50 [9]	GI50 [10]	GI50 [11]	GI50 [12]	GI50 [14]	GI50 [16]	GI50 [18]	GI50 [1]	GI50 [2]	GI50 [4]	GI50 [7]	GI50 [8]	GI50 [13]	GI50 [15]	GI50 [17]	GI50 [19]	Compound	also measured
no activity	45 nM	49 nM	91 nM	41 nM	48 nM	46 nM	27 nM	46 nM	38 nM	27 nM	–	–	–	–	–	–	–	–	–	C/C=C1\NC(=O)c2ccc(SC)c(n2)CNC(=O)C[C@@H](/C=C/CCSC(=O)CCCC)OC(=O)[C@H](C(C)C)NC1=O [Compound 158]	GI50 ([1]; A549 cells): 30 nM; GI50 ([2]; BGC-823 cells): 30 nM; GI50 ([4]; DU145 cells): 60 nM; GI50 ([7]; HT1080 cells): 70 nM; GI50 ([8]; Hela cells): 60 nM; GI50 ([13]; MCF-7 cells): 20 nM; GI50 ([15]; MOLT-4 cells): 80 nM; GI50 ([17]; PANC-1 cells): 20 nM; GI50 ([19]; U937 cells): 40 nM; GI50 ([20]; lncap cells): 40 nM
no activity	43 nM	15 nM	34 nM	51 nM	47 nM	69 nM	21 nM	67 nM	25 nM	57 nM	50 nM	60 nM	80 nM	70 nM	70 nM	10 nM	90 nM	70 nM	50 nM	C=C1NC(=O)c2cccc(n2)CNC(=O)C[C@@H](/C=C/CCS)OC(=O)[C@H](C)NC1=O [Compound 139]	GI50 [20]: 190 nM
no activity	31 nM	37 nM	33 nM	68 nM	61 nM	75 nM	65 nM	34 nM	35 nM	23 nM	–	–	–	–	–	–	–	–	–	C/C=C1\NC(=O)c2nc(ccc2SC)CNC(=O)C[C@@H](/C=C/CCS)OC(=O)[C@H](C(C)C)NC1=O [Compound 226]	GI50 ([1]; A549 cells): 60 nM; GI50 ([2]; BGC-823 cells): 50 nM; GI50 ([4]; DU145 cells): 30 nM; GI50 ([7]; HT1080 cells): 20 nM; GI50 ([8]; Hela cells): 90 nM; GI50 ([13]; MCF-7 cells): 20 nM; GI50 ([15]; MOLT-4 cells): 30 nM; GI50 ([17]; PANC-1 cells): 20 nM; GI50 ([19]; U937 cells): 40 nM; GI50 ([20]; lncap cells): 30 nM
no activity	23 nM	65 nM	23 nM	22 nM	35 nM	53 nM	26 nM	73 nM	77 nM	43 nM	–	–	–	–	–	–	–	–	–	C/C=C1\NC(=O)c2ccc(SC)c(n2)CNC(=O)C[C@@H](/C=C/CCSC(C)=O)OC(=O)[C@H](Cc2ccc(O)cc2)NC1=O [Compound 203]	GI50 ([1]; A549 cells): 30 nM; GI50 ([2]; BGC-823 cells): 80 nM; GI50 ([4]; DU145 cells): 40 nM; GI50 ([7]; HT1080 cells): 60 nM; GI50 ([8]; Hela cells): 30 nM; GI50 ([13]; MCF-7 cells): 40 nM; GI50 ([15]; MOLT-4 cells): 30 nM; GI50 ([17]; PANC-1 cells): 30 nM; GI50 ([19]; U937 cells): 20 nM; GI50 ([20]; lncap cells): 30 nM
